Source: paper PMC3961306, “Comparison of the Cancer Gene Targeting and Biochemical Selectivities of All Targeted Kinase Inhibitors Approved for Clinical Use” (PLoS ONE, 2014)
Read-outs that look alike come from different tables or passages of the source.

Tests used:
[1] = tested on: mutant versus wild-type cell lines of the 44 cell line panel; test: Anova analysis of cell panel IC50s against cancer gene changes; standardized mean difference (targetedness)
[2] = tested on: forty-four human cancer cell lines; test: Cell proliferation assay (ATPlite, 72 hours) in the 44 cell line Oncolines panel; type: cell-based

Cc1ccc(NC(=O)c2ccc(CN3CCN(C)CC3)cc2)cc1Nc1nccc(-c2cccnc2)n1 [imatinib]
targetedness (standardized logIC50 difference) ([1]; ABL1 oncogene targeting, Figure 5D): -9.84

CNC(=O)c1cc(Oc2ccc(NC(=O)Nc3ccc(Cl)c(C(F)(F)F)c3)cc2)ccn1 [sorafenib]
IC50 ([2]; Homo sapiens, 4-4 cell, read-out: cell panel IC50, J82): 26.5 µM | IC50 ([2]; Homo sapiens, 4-4 cell, read-out: cell panel IC50, PA-1): 11.7 µM | IC50 ([2]; Homo sapiens, 4-4 cell, read-out: cell panel IC50, SJCRH30): 12.1 µM | IC50 ([2]; Homo sapiens, 4-4 cell, read-out: cell panel IC50, SR): 11.8 µM | IC50 ([2]; Homo sapiens, 769-P, read-out: cell panel IC50, 769-P): 12.7 µM | IC50 ([2]; Homo sapiens, 786-0, read-out: cell panel IC50, 786-0): 11.7 µM | IC50 ([2]; Homo sapiens, A 172, read-out: cell panel IC50, A-172): 22.6 µM | IC50 ([2]; Homo sapiens, A204, read-out: cell panel IC50, A-204): 1.62 µM | IC50 ([2]; Homo sapiens, A498, read-out: cell panel IC50, A-498): 18.7 µM | IC50 ([2]; Homo sapiens, A549, read-out: cell panel IC50, A-549): 21.2 µM | IC50 ([2]; Homo sapiens, A-375, read-out: cell panel IC50, A375): 28.7 µM | IC50 ([2]; Homo sapiens, A-427, read-out: cell panel IC50, A-427): 7.78 µM | IC50 ([2]; Homo sapiens, ACHN, read-out: cell panel IC50, ACHN): 17.5 µM | IC50 ([2]; Homo sapiens, AN3-CA, read-out: cell panel IC50, AN3 CA): 9.97 µM | IC50 ([2]; Homo sapiens, AU565, read-out: cell panel IC50, AU-565): 10.4 µM | IC50 ([2]; Homo sapiens, BT-20, read-out: cell panel IC50, BT-20): 25.1 µM | IC50 ([2]; Homo sapiens, BT-549, read-out: cell panel IC50, BT-549): 18.2 µM | IC50 ([2]; Homo sapiens, BXPC-3, read-out: cell panel IC50, BxPC-3): 11.1 µM | IC50 ([2]; Homo sapiens, C-33-A, read-out: cell panel IC50, C-33 A): 15.9 µM | IC50 ([2]; Homo sapiens, CAL-27, read-out: cell panel IC50, CAL 27): 14 µM | IC50 ([2]; Homo sapiens, CCRF-CEM, read-out: cell panel IC50, CCRF-CEM): 13 µM | IC50 ([2]; Homo sapiens, DLD-1, read-out: cell panel IC50, DLD-1): 10.5 µM | IC50 ([2]; Homo sapiens, FaDu, read-out: cell panel IC50, FaDu): 16.2 µM | IC50 ([2]; Homo sapiens, HCT-15, read-out: cell panel IC50, HCT-15): 9.9 µM | IC50 ([2]; Homo sapiens, HCT-116, read-out: cell panel IC50, HCT-116): 11.9 µM | IC50 ([2]; Homo sapiens, Hs-578T, read-out: cell panel IC50, Hs 578T): 21.6 µM | IC50 ([2]; Homo sapiens, Jurkat E6.1, read-out: cell panel IC50, Jurkat E6.1): 7.94 µM | IC50 ([2]; Homo sapiens, K562, read-out: cell panel IC50, K-562): 9.46 µM | IC50 ([2]; Homo sapiens, LS174T, read-out: cell panel IC50, LS 174T): 11.7 µM | IC50 ([2]; Homo sapiens, LoVo, read-out: cell panel IC50, LoVo): 11.3 µM | IC50 ([2]; Homo sapiens, MG-63, read-out: cell panel IC50, MG-63): 27.4 µM | IC50 ([2]; Homo sapiens, MOLT-4, read-out: cell panel IC50, MOLT-4): 10.5 µM | IC50 ([2]; Homo sapiens, MeWo, read-out: cell panel IC50, MeWo): 20.9 µM | IC50 ([2]; Homo sapiens, NCI-H82, read-out: cell panel IC50, NCI-H82): 11.3 µM | IC50 ([2]; Homo sapiens, NCI-H460, read-out: cell panel IC50, NCI-H460): 14.1 µM | IC50 ([2]; Homo sapiens, OVCAR-3, read-out: cell panel IC50, OVCAR-3): > 31.6 µM | IC50 ([2]; Homo sapiens, RPMI-7951, read-out: cell panel IC50, RPMI-7951): 20.4 µM | IC50 ([2]; Homo sapiens, SHP77, read-out: cell panel IC50, SHP-77): 13.6 µM | IC50 ([2]; Homo sapiens, SK-N-AS, read-out: cell panel IC50, SK-N-AS): 28.9 µM | IC50 ([2]; Homo sapiens, SW48, read-out: cell panel IC50, SW48): 8.3 µM | IC50 ([2]; Homo sapiens, SW480, read-out: cell panel IC50, SW480): 5.33 µM | IC50 ([2]; Homo sapiens, SW-620, read-out: cell panel IC50, SW620): 5.95 µM | IC50 ([2]; Homo sapiens, U2OS, read-out: cell panel IC50, U-2 OS): 15.8 µM | IC50 ([2]; Homo sapiens, U-87 MG, 72 h, read-out: IC50 in cell proliferation assay (table S5 cellpanel data)): 28.3 µM

Cn1cnc2c(F)c(Nc3ccc(Br)cc3Cl)c(C(=O)NOCCO)cc21 [selumetinib]
Potency shift in cell lines expressing mutant β-catenin (CTNNB1) versus wild-type ([1]; CTNNB1 mutant versus wild-type, average): more than tenfold

N.N.[Cl][Pt][Cl] [cisplatin]
IC50 ([2]; U-87 MG cell line, ATPlite, 72 hours, read-out: IC50 in cell proliferation assay (table S5 cellpanel data)): > 31.6 µM | IC50 ([2]; cell line 769-P, read-out: cell panel IC50, 769-P): > 31.6 µM | IC50 ([2]; cell line 786-0, read-out: cell panel IC50, 786-0): 15.1 µM | IC50 ([2]; cell line A375, read-out: cell panel IC50, A375): 13.3 µM | IC50 ([2]; cell line A-204, read-out: cell panel IC50, A-204): > 31.6 µM | IC50 ([2]; cell line ACHN, read-out: cell panel IC50, ACHN): 13.5 µM | IC50 ([2]; cell line AN3 CA, read-out: cell panel IC50, AN3 CA): 27.5 µM | IC50 ([2]; cell line BT-20, read-out: cell panel IC50, BT-20): > 31.6 µM | IC50 ([2]; cell line BxPC-3, read-out: cell panel IC50, BxPC-3): 20.2 µM | IC50 ([2]; cell line C-33 A, read-out: cell panel IC50, C-33 A): 13.9 µM | IC50 ([2]; cell line CAL 27, read-out: cell panel IC50, CAL 27): 6.14 µM | IC50 ([2]; cell line CCRF-CEM, read-out: cell panel IC50, CCRF-CEM): 10.5 µM | IC50 ([2]; cell line DLD-1, read-out: cell panel IC50, DLD-1): > 31.6 µM | IC50 ([2]; cell line FaDu, read-out: cell panel IC50, FaDu): 27.3 µM | IC50 ([2]; cell line HCT-15, read-out: cell panel IC50, HCT-15): > 31.6 µM | IC50 ([2]; cell line Hs 578T, read-out: cell panel IC50, Hs 578T): > 31.6 µM | IC50 ([2]; cell line J82, read-out: cell panel IC50, J82): 10.1 µM | IC50 ([2]; cell line Jurkat E6.1, read-out: cell panel IC50, Jurkat E6.1): 4.85 µM | IC50 ([2]; cell line LoVo, read-out: cell panel IC50, LoVo): > 31.6 µM | IC50 ([2]; cell line MG-63, read-out: cell panel IC50, MG-63): 8.57 µM | IC50 ([2]; cell line MOLT-4, read-out: cell panel IC50, MOLT-4): 8.09 µM | IC50 ([2]; cell line MeWo, read-out: cell panel IC50, MeWo): > 31.6 µM | IC50 ([2]; cell line NCI-H82, read-out: cell panel IC50, NCI-H82): 19.8 µM | IC50 ([2]; cell line NCI-H460, read-out: cell panel IC50, NCI-H460): 10 µM | IC50 ([2]; cell line OVCAR-3, read-out: cell panel IC50, OVCAR-3): > 31.6 µM | IC50 ([2]; cell line PA-1, read-out: cell panel IC50, PA-1): 1.42 µM | IC50 ([2]; cell line RPMI-7951, read-out: cell panel IC50, RPMI-7951): 10 µM | IC50 ([2]; cell line SHP-77, read-out: cell panel IC50, SHP-77): > 31.6 µM | IC50 ([2]; cell line SJCRH30, read-out: cell panel IC50, SJCRH30): > 31.6 µM | IC50 ([2]; cell line SK-N-AS, read-out: cell panel IC50, SK-N-AS): > 31.6 µM | IC50 ([2]; cell line SR, read-out: cell panel IC50, SR): 4.45 µM | IC50 ([2]; cell line SW48, read-out: cell panel IC50, SW48): > 31.6 µM | IC50 ([2]; cell line SW480, read-out: cell panel IC50, SW480): > 31.6 µM | IC50 ([2]; cell line SW620, read-out: cell panel IC50, SW620): > 31.6 µM | IC50 ([2]; cell line U-2 OS, read-out: cell panel IC50, U-2 OS): > 31.6 µM | IC50 ([2]; read-out: cell panel IC50, A-172, cell line A-172): > 31.6 µM | IC50 ([2]; read-out: cell panel IC50, A-427, cell line A-427): > 31.6 µM | IC50 ([2]; read-out: cell panel IC50, A-498, cell line A-498): 23.3 µM | IC50 ([2]; read-out: cell panel IC50, A-549, cell line A-549): 15.6 µM | IC50 ([2]; read-out: cell panel IC50, AU-565, cell line AU-565): 15.2 µM | IC50 ([2]; read-out: cell panel IC50, BT-549, cell line BT-549): 9.55 µM | IC50 ([2]; read-out: cell panel IC50, HCT-116, cell line HCT-116): > 31.6 µM | IC50 ([2]; read-out: cell panel IC50, K-562, cell line K-562): > 31.6 µM | IC50 ([2]; read-out: cell panel IC50, LS 174T, cell line LS 174T): 8.57 µM
